Measurements as given in patent publication US20220119868A1, “PROFILING RNA-SMALL MOLECULE BINDING SITES WITH OLIGONUCLEOTIDES” (priority 2018, published 2022).
Values joined by “and” are separate entries in the source; they are usually repeats but may differ in a detail not shown here. Identical values can stand only once.

What was measured:
CAMK4 = CAMK4 (Homo sapiens, UniProt Q16566); assay: In vitro inhibition of a panel of kinases; assay type: biochemical; conditions: 20 μM
Source text: (§1) Effect of compounds on HCV replication. […] Cytotoxicity assays. […] Oligonucleotide profiling of target engagement in vitro. […] Primers can be found in Table 4. […] Inhibition of kinases. […] . Figure S7C).

[1] = tested on: HCV replication, SGR-Neo-RLuc-JFH1-2A replicon cells established in Huh-7.5; assay: HCV replication in subgenomic replicon cells (Renilla luciferase); assay type: cell-based, Hepatitis C virus; conditions: for IC50: Hepatitis C virus, Huh7.5, read-out: IC50, inhibition of HCV replication
Source text: (§2) The compounds bind their cognate loops in the 3′ UTR with mid-nanomolar to low micromolar affinities (Table 1). It was next determined if the identified compounds could inhibit HCV RNA replication in HCV subgenomic replicon cells, in particular SGR-Neo-RLuc-JFH1-2A replicon cells established in Huh-7.5 (human hepatoma cells). In this system, an autonomously replicating viral RNA replicon is used to monitor efficiently RNA replication of the virus in the absence of spread of viral RNA to adjacent cells. This is achieved by replacing the structural proteins required to assembly progeny virions with a drug selectable marker (Neo) and a Renilla luciferase (RLuc) reporter gene. Once this replicon has been delivered to human hepatoma cells and selection with G418 (conferred by Neo selectable marker) has occurred, the expression and Renilla luciferase activity is directly correlated with the level of HCV replication^57.
They were therefore assayed for their ability to inhibit HCV replication using this replicon system, with DMSO vehicle and 2′-C-methyladenosine^17 triphosphate serving as negative and positive controls, respectively.
as §1

[2] = biological target: HCV RNA motif 5′UAG3′/3′A_C5′ (SL I); assay: In solution, fluorescence-based binding affinity assay, HCV RNA motifs; set-up: species or system Hepatitis C virus
Source text: as §2
(§3) where n1 is the size of Population 1 (number of sequencing reads for a given RNA from RNA-seq analysis of the selected library), n2 is the size of Population 2 (number of sequencing reads for the same RNA from RNA-seq analysis of the starting library), p1 is the observed proportion of Population 1 (the number of reads for a given RNA from selected library/total number of reads), and p2 is the observed proportion for Population 2 (the number of reads for the same RNA in the starting library/total number of reads). Generation of Logos and DiffLogos: Zobs corresponding to the highest (enriched) 0.5% and lowest (discriminated against) 0.5% scores were analyzed to generate consensus sequences, or Logos. The resulting list of sequences were converted to position weight matrix (PWM) lists for each compound. “Enriched” and “discriminated” sequences were kept separate using JMP®, Version <13.2.1>. SAS Institute Inc., Cary, N.C., 1989-2007. The R package Difflogo,^16 which is part of Bioconductor, was utilized to create the sequence logos from PWM lists for each compound and visually compare the differences between them. Binding Affinity Measurements. Dissociation constants were determined using an in solution, fluorescence-based assay. […] Serial dilutions (1:2) of the small molecule were then completed in 1× Assay Buffer supplemented with 1 mM MgCl2. The solutions were incubated for 30 min at room temperature, transferred to a 96-well plate, and fluorescence intensity measured on a BioTek-FLx800 plate reader. The change in fluorescence intensity as a function of small molecule concentration was fit to a one site binding model per equation 3: […]
as §1

[3] = biological target: HCV RNA motif 5′GUG3′/3′C_C5′ (SL I and SL III); assay: as above; set-up: species or system Hepatitis C virus
Source text: as §2, §3, §1

[4] = biological target: HCV RNA motif 5′CUG3′/3′G_C5′ (SL II); assay: as above; set-up: species or system Hepatitis C virus
Source text: as §2, §3, §1

[5] = biological target: RNA motif 5′UUA3′/3′A_U5′ (from RNA library C); assay: In solution, fluorescence-based binding affinity assay
Protocol: (§4) Affinity of Selected RNA Motif-Small Molecule Interactions. The affinity of exemplar compounds that have inherent fluorescence was measured. […] . Binding affinities were confirmed using a label-free method, biolayer interferometry.
as §3, §1

Fully paired RNA = assay: as above
Protocol: as §4, §3, §1

panel of 22 kinases = assay: In vitro inhibition of a panel of kinases; assay type: biochemical; conditions: 20 μM; for kinases inhibited in the panel: panel of 22 kinases

CAMK4, sequence (Q16566 whole entry): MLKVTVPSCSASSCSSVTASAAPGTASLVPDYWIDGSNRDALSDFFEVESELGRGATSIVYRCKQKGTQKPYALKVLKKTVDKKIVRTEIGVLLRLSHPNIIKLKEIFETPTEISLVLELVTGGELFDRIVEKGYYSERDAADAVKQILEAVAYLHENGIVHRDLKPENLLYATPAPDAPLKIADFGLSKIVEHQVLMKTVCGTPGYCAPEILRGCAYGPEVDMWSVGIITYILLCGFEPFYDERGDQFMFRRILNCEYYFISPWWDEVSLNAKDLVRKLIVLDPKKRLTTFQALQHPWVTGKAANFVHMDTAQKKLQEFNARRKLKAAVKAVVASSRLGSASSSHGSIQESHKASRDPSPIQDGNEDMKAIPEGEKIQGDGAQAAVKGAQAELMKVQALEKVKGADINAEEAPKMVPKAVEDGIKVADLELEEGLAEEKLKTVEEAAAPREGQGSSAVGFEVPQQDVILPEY

Structure (SMILES): O=C(Nc1cccc(NC(=O)Nc2cc(C(=O)Nc3ccc(C4=NCCN4)cc3)ccc2C(=O)Nc2ccc(C3=NCCN3)cc2)c1)Nc1cc(C(=O)Nc2ccc(C3=NCCN3)cc2)ccc1C(=O)Nc1ccc(C2=NCCN2)cc1 [Compound 7]
- inhibition of CAMK4 in vitro (CAMK4): most significantly inhibited
- IC50 [1]: 17000 ± 500 nM
- Kd [2]: 460 ± 70 nM
- Kd [3]: 470 ± 32 nM
- Kd [4]: 820 ± 82 nM
- Kd [5]: 380 ± 26 nM
- Kd (Fully paired RNA): > 7000 nM
- kinases inhibited in the panel (panel of 22 kinases): affected seven kinases modestly
- average percent inhibition of the seven affected kinases (panel of 22 kinases): 16±3%

Structure (SMILES): O=C(Nc1ccc(C2=NCCN2)cc1)c1cc(C(=O)Nc2ccc(C3=NCCN3)cc2)cc(C(=O)Nc2ccc(C3=NCCN3)cc2)c1 [Compound 8]
- inhibition of CAMK4 in vitro (CAMK4): most significantly inhibited
- IC50 [1]: 14000 ± 1000 nM
- effect on viral replication together with ASO ([1]; with ASO Control binding 750 nucleotides downstream): less robust
- effect on viral replication together with ASO ([1]; with ASO complementary to SL I, luciferase): synergistic effect
- Kd [2]: 849 ± 150 nM
- Kd [3]: 1400 ± 160 nM
- Kd [4]: 1400 ± 211 nM
- Kd [5]: 690 nM and 530 nM
- Kd (Fully paired RNA): > 5000 nM
- kinases inhibited in the panel (panel of 22 kinases): affected seven kinases modestly
- average percent inhibition of the seven affected kinases (panel of 22 kinases): 14±3%
